{"source": "paper PMC4695662", "about": "(BioMed Research International, 2015)", "key": {"Oat1 and Oat3 [1]": {"system": "Oat1 and Oat3", "assay": "PAH pharmacokinetic studies in mice sera after oral treatment with investigational samples", "settings": "in words, versus control", "quoted_text": "All mice were given standard mice chows and pure water ad libitum and housed at 20~26°C.\nOn the experiment day, 60 min after the last administration of investigational samples, all mice were single i.v. PAH (30 mg/kg B.W., aqueous solution), respectively, according to the protocol of Bertani et al. [16] and blood samples were collected from 10 mice/group by euthanization in each time point at 1.0, 2.5, 5.0, 7.5, 10.0, 20.0, and 30.0 min after PAH injection. Blood samples were centrifuged at 2000 ×g for 5 min. The obtained sera were stored at −20°C until measurement.\nThe concentration of PAH in sera was determined according to Saikan and Kiguchi [19] method. The sera concentration versus time curve for PAH, for each individual animal, was fitted with PK software DAS 2.0. The data were fitted to a biexponential curve. The choice of the best fit was based on the determination of coefficient values (R ^2) and LSD test [20]. All fits should have R ^2 values > 0.98. […] Concentration of PAH in serum was measured using the method described by Di Giusto et al. [21]."}, "Oat3 mRNA": {"system": "Oat3 mRNA", "assay": "Oat3 mRNA expression in kidney by real-time PCR", "type": "in vivo", "settings": "renal cortex of mice", "experimental": "(§1) Total RNA was extracted using Trizol reagent from renal cortical tissues according to the manufacturer's instructions and RNA concentration and purity were evaluated by measuring the ratio of A260 nm/A280 nm. First-strand cDNA was generated by adding 1 μg total RNA; 2 μL 5x gDNA Eraser Buffer; 1 μL gDNA Eraser; 5 μL RNase Free dH2O (step 1: 42°C, 2 min for genomic DNA elimination reaction); […]; 1 μL Prime Script RT Enzyme Mix I; 1 μL RT Primer Mix; 4 μL RNase Free dH2O; and 10 μL reaction solution from step 1, which were used to reach a total reaction volume of 20 μL. The condition of reverse-transcription (RT) reaction was as follows, 15 min at 37°C and 85°C for 5 s, and stored at 4°C. […]\n(§2) The real-time quantitative PCR was conducted in ABI 7500 (Applied Biosystems, USA) and the cycling program was set at 1 cycle of predenaturation at 95°C for 30 s and then 40 cycles at 95°C for 15 s, 56°C for 30 s, and 72°C for 31 s. […] Quantification of the target cDNAs in all samples was normalized to GAPDH […] (Cttarget − CtGAPDH = ΔCt) and the difference in expression for each target cDNA in the investigated groups was expressed to the amount in the water control group (ΔCttreated − ΔCtcontrol = ΔΔCt). Fold changes in target gene expression were determined by taking 2 to the power of this number (2^−ΔΔCt)."}, "Oat1 and Oat3 [2]": {"system": "Oat1 and Oat3", "assay": "PAH uptake by mice renal slices after treatment", "type": "in vivo", "settings": "2 mM PAH, 20 min, 37°C, slices from mice treated twice a day for five days; in words", "experimental": "The uptake of PAH by mice renal slices was investigated using the procedures described by Henderson and Lindup. Briefly, mice were executed, and the kidneys were immediately harvested, decapsulated, and placed in an ice-cold oxygenated rinse PBS (pH 7.4). Renal slices (weight 10–20 mg/slice) were cut freehand with Gillette valet strip blades to about 0.2 inches in length (Sabre International Products Ltd., Reading, UK). Slices of one kidney were preincubated for 5 min at 37°C and incubated in a 12-well plate with 1 mL of oxygenated PAH-buffer which consisted of 2 mM PAH, 97 mM NaCl, 40 mM KCl, 0.74 mM CaCl2, and 7.5 mM sodium phosphate-chloride buffer in each well. The uptake study was carried out at 37°C in the shaking bath. After incubating for 20 min, each slice was rapidly removed from the PAH-buffer, immediately inactivated the proteins with trichloroacetic acid, was washed in ice-cold saline, was blotted on filter paper, was weighed, and then was homogenized at a ratio of 3 mL/g wet weight. The following operations were the same as described in Section 2.6."}, "Oat1 mRNA": {"system": "Oat1 mRNA", "assay": "Oat1 mRNA expression in kidney by real-time PCR", "type": "in vivo", "settings": "renal cortex of mice", "experimental": "as §1, §2"}, "Oat1 and Oat3 [3]": {"system": "Oat1 and Oat3", "assay": "Accumulation of PAH in kidney tissue", "type": "in vivo, mice", "settings": "all sampling times after i.v. PAH, compared with C-1 (p < 0.01); in words", "experimental": "The mice renal homogenate was prepared by Shihana et al. protocol. Each right kidney was cut into small pieces, which were put into a glass homogenizing tube containing PBS (200 mM sucrose, 137 mM NaCl, 2.7 mM KCl, 10 mM Na2HPO4, and 2 mM NaH2PO4; pH 7.4) at a ratio of 8 mL/g wet weight and then were homogenized with a motor-driven Teflon pestle (1000 rpm/min) and spun down for 30 min at 20,000 ×g. The supernatant was isolated and then stored at −20°C until determination. The kidney homogenates were prepared from each group which was removed at 1, 5, 10, 20, and 30 min after i.v. PAH. Protein content of kidney homogenates was quantified using the Lowry Folin phenol reagent (Nanjing Jiancheng Bioengineering Institute, Ltd., China, Lot. 130918). The concentrations of PAH in kidney homogenate were determined the same as that in the sera."}}, "data": [{"smiles": "[Cl][Hg][Cl]", "note": "[HgCl2]", "values": [{"measurement": "Change of area under the curve (AUC0–30 min) of serum PAH", "setting": "Oat1 and Oat3 [1]", "result": "significant increase"}, {"measurement": "Change of total volume of distribution (VdT) of serum PAH", "setting": "Oat1 and Oat3 [1]", "result": "obvious decrease"}, {"measurement": "Decrease in Oat3 mRNA level", "setting": "Oat3 mRNA", "result": 40, "unit": "%"}, {"measurement": "Active uptake of PAH by renal slices", "setting": "Oat1 and Oat3 [2]", "result": "interfered with the PAH uptake"}, {"measurement": "Reduction of Oat1 mRNA expression", "setting": "Oat1 mRNA", "result": 40, "unit": "%"}, {"measurement": "PAH accumulations in the kidneys", "setting": "Oat1 and Oat3 [3]", "result": "observably increased"}]}]}
